Measured values as given in patent publication US8076455B2, “Guanosine triphosphate (GTP)-binding protein-coupled receptor protein, BG37” (Merck Sharp & Dohme Corp., priority 2000, dated 2011).

Columns and labels:
Type in all cases: cell-based
[1] = target: T1, human BG37 (Homo sapiens, UniProt Q8TDU6); assay: Assay of intracellular cAMP level (EIA) in human BG37-expressing cells (HEK/hBG37), steroid hormones; details: steroid hormone at various concentrations, 37° C. for 15 minutes
T1 construct: Human BG37 gene cut out, utilizing the BamHI-EcoRV site, from pCR2.1-BG37ORF was subcloned into the BamHI-EcoRV digested pKT52 vector; expressed in transfected cells
T1 sequence (Q8TDU6 1-330): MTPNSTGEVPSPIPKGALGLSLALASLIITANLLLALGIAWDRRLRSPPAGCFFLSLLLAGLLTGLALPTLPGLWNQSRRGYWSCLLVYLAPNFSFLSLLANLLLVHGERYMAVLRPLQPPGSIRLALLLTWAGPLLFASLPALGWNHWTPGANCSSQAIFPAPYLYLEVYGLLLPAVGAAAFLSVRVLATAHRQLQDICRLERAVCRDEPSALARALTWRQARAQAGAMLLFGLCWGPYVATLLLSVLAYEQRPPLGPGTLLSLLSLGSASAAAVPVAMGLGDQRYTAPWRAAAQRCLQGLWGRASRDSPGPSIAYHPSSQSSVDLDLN
Method: On the day before the measurement of the intracellular cAMP level, cells were re-plated at a cell density of 4×10^4 cells/well on a poly-D-lysin-coated 96-well plate (Becton Dickinson), and then incubated at 37° C. for another 24 hours.

[2] = target: T1, human BG37; assay: Bile acid-dependent increase of intracellular cAMP level (HTRF) in cells expressing the human BG37; details: cells expressing the human BG37 (HEK/hBG37); reagent at various concentrations, 37° C. for 20 minutes
Method: The intracellular cAMP level in the presence of a ligand was measured to determine the increase of the intracellular cAMP level through G proteins bound to the seven-transmembrane receptor.
On the day before the measurement of the intracellular cAMP level, cells were re-plated at a cell density of 4×10^4 cells/well on a poly-D-lysin-coated 96-well plate (Becton Dickinson), and then incubated at 37° C. for another 24 hours. Cells of the stable cell line were rinsed twice with 1 mM 3-Isobutyl-1-Methylxanthine (IBMX) (Nacalai Tesque) containing Opti-MEM solution (GIBCO BRL) (Opti-MEM-BSA-IBMX solution), and then incubated at 37° C. for 20 minutes. After removing the supernatant, Opti-MEM-IBMX solution containing a reagent at various concentrations was added thereto. The resulting mixture was incubated at 37° C. for 20 minutes. Then, the cells were lysed with 0.5% Triton X-100 to determine the level of intracellular cAMP.
Measurement of the intracellular cAMP level was carried out using cyclic AMP kit (HTRF) (Nihon Schering) according to the provided manual.

[3] = system: mock-transfected cells which contained the vector alone; assay: Intracellular cAMP level (EIA) in mock-transfected cells containing the vector alone (control cells); details: various concentrations, 37° C. for 15 minutes
Method: Intracellular cAMP levels were determined using the method of Zlokarmik et al. (Science 279, 84 (1998)). The intracellular cAMP level in cells that reacted with the ligand was measured to determine the increase of intracellular cAMP level through G proteins bound to the seven-transmembrane receptor.
On the day before the measurement of the intracellular cAMP level, cells were re-plated at a cell density of 4×10^4 cells/well on a poly-D-lysin-coated 96-well plate (Becton Dickinson), and then incubated at 37° C. for another 24 hours. Cells of the stable cell line were rinsed twice with 0.1% BSA (SIGMA) and 1 mM 3-Isobutyl-1-Methylxanthine containing Opti-MEM solution (GIBCO BRL: Opti-MEM-BSA-IBMX solution) (Nacalai Tesque Inc.: IBMX), and then incubated at 37° C. for 20 minutes. After removing the supernatant, Opti-MEM-BSA-IBMX solution containing at various concentrations a steroid hormone, such as progesterone, was added thereto. The resulting mixture was incubated at 37° C. for 15 minutes. Then, the cells were lysed with Lysis Buffer to measure the level of intracellular cAMP.
The measurement of the intracellular cAMP level was carried out using cyclic AMP enzyme immuno-assay (EIA) system (Amersham Pharmacia Biotech) according to the provided manual.

Row | SMILES | intracellular cAMP level [2] | further results
1 | C[C@]12CCC(=O)C=C1CC[C@@H]1[C@@H]2CC[C@]2(C)C(=O)CC[C@@H]12 [androstenedione] | – | intracellular cAMP level [1]: increased in a concentration-dependent manner
2 | C[C@H](CCC(=O)O)[C@H]1CC[C@H]2[C@@H]3[C@H](O)C[C@@H]4C[C@H](O)CC[C@]4(C)[C@H]3CC[C@]12C [chenodeoxycholic acid] | elevated | –
3 | C[C@H](CCC(=O)O)[C@H]1CC[C@H]2[C@@H]3[C@H](O)C[C@@H]4C[C@H](O)CC[C@]4(C)[C@H]3C[C@H](O)[C@]12C [cholic acid] | elevated | –
4 | CC(=O)[C@H]1CC[C@H]2[C@@H]3CCC4=CC(=O)CC[C@]4(C)[C@H]3CC[C@]12C [progesterone] | – | concentration-dependent increase of intracellular cAMP [3]: not observed
